From PMC6308302, “Identification of Pharmacokinetic Markers for Guanxin Danshen Drop Pills in Rats by Combination of Pharmacokinetics, Systems Pharmacology, and Pharmacodynamic Assays” (Frontiers in Pharmacology, 2018)
Entries after “also recorded” stand apart in the source; their conditions may differ. Marks after values point to notes of the source that are not given here.

How the values were obtained:
[1] = Aqueous solubility test (vortexing in water); assay type: physicochemical; conditions: for solubility in water (in words): water at 25 °C
Caco-2 cell monolayers = conditions: ref Lu et al., 2008, Liu et al., 2009, Hu et al., 2014, Bowles et al., 2017, cited from earlier work; for Papp(apical→basolateral) / Papp(basolateral→apical): Caco-2 cell monolayers, from literature; for apparent permeability in Caco-2 cell monolayers: previous results
[2] = Stability tests in rat plasma (QC samples, HPLC-MS); conditions: n=5
Excerpt: Accuracy and precision were expressed by relative error (RE) and coefficient of variance (RSD), respectively.

[3] = Multiple component PK study in rat plasma after p.o. GDDP (HPLC-MS); conditions: for determination in rat plasma at the planned successive PK time points / detection in rat plasma: GDDP 0.8 g/kg p.o.; for determination in rat plasma at the planned successive PK time points: 5, 10, 15, 30, 45, 60, and 120 min, LOQ 1.0–1.4 ng/mL; for detection in rat plasma: at 5, 10, 15, 30, 45, or 60 min, LOD 0.5–0.7 ng/mL
[4] = tested on: isoprenaline-induced MI in mice; assay: In vivo anti-MI study: isoprenaline-induced myocardial injury (ECG, H&E histology); conditions: for ECG (lead II) findings on the fifth day of the trial: 40 mg/kg p.o., isoprenaline 5 mg/kg on days 4 and 5
[5] = 24h in auto-sampler vials, spiked 2 ng/mL
[6] = 24h in auto-sampler vials, spiked 400 ng/mL
[7] = 24h in auto-sampler vials, spiked 1600 ng/mL
[8] = Placing plasma for 6h at 4°C, spiked 2 ng/mL
[9] = Placing plasma for 6h at 4°C, spiked 400 ng/mL
[10] = Placing plasma for 6h at 4°C, spiked 1600 ng/mL
[11] = three freeze-thaw cycles, rat plasma, spiked 2 ng/mL
[12] = three freeze-thaw cycles, rat plasma, spiked 400 ng/mL
[13] = three freeze-thaw cycles, rat plasma, spiked 1600 ng/mL
[14] = Sprague-Dawley, rat, plasma, po, 0.4 g/kg
[15] = Sprague-Dawley, rat, plasma, po, 0.4 g/kg, Cmax, rat plasma, GDDP 0.4 g/kg p.o. (Low dose group), n=3
[16] = Sprague-Dawley, rat, plasma, po, 0.4 g/kg, t1/2 β, rat plasma, GDDP 0.4 g/kg p.o. (Low dose group), n=3
[17] = Sprague-Dawley, rat, plasma, po, 0.8 g/kg
[18] = Sprague-Dawley, rat, plasma, po, 0.8 g/kg, Cmax (high / low plasma drug concentrations), rats, GDDP 0.4 and 0.8 g/kg p.o., classification
[19] = Sprague-Dawley, rat, plasma, po, 0.8 g/kg, Cmax, rat plasma, GDDP 0.8 g/kg p.o. (High dose group), n=3
[20] = Sprague-Dawley, rat, plasma, po, 0.8 g/kg, t1/2 β (fast / slow elimination type), rats, GDDP 0.4 and 0.8 g/kg p.o., classification
[21] = Sprague-Dawley, rat, plasma, po, 0.8 g/kg, t1/2 β, rat plasma, GDDP 0.8 g/kg p.o. (High dose group), n=3
[22] = rat plasma, GDDP 0.4 g/kg p.o. (Low dose group), n=3
[23] = rat plasma, GDDP 0.8 g/kg p.o. (High dose group), n=3
[24] = 40 mg/kg p.o. for 7 days, isoprenaline-induced MI, 40 mg/kg
[25] = 40 mg/kg p.o. for 7 days, isoprenaline-induced MI

## CC(C)=CCC[C@](C)(O[C@@H]1O[C@H](CO)[C@@H](O)[C@H](O)[C@H]1O)[C@H]1CC[C@]2(C)[C@@H]1[C@H](O)C[C@@H]1[C@@]3(C)CC[C@H](O[C@@H]4O[C@H](CO)[C@@H](O)[C@H](O)[C@H]4O[C@@H]4O[C@H](CO)[C@@H](O)[C@H](O)[C@H]4O)C(C)(C)[C@@H]3CC[C@]12C [Rd, ginsenoside Rd]
[1]; thermodynamic from solid, determined, water, 25 °C, 1 atm
  solubility at 5 min: > 10000 µg/mL
Caco-2 cell monolayers
  Papp(apical→basolateral): > 0.1^c ×10^-6 cm/s
  Papp(basolateral→apical): > 0.1^c ×10^-6 cm/s
  apparent permeability in Caco-2 cell monolayers: > 10^-7 cm/s
[2]; [5]
  Stability: Measured: 1.93 ± 0.23 ng/mL
  Stability: RE: -3.59%
[2]; [6]
  Stability: Measured: 406.43 ± 27.13 ng/mL
  Stability: RE: 1.61%
[2]; [7]
  Stability: Measured: 1489.53 ± 52.70 ng/mL
  Stability: RE: -6.90%
[2]; [8]
  Stability: Measured: 1.65 ± 0.33 ng/mL
  Stability: RE: -17.56%
[2]; [9]
  Stability: Measured: 449.87 ± 18.67 ng/mL
  Stability: RE: 12.47%
[2]; [10]
  Stability: Measured: 1891.74 ± 134.38 ng/mL
  Stability: RE: 18.23%
[2]; [11]
  Stability: Measured: 1.81 ± 0.18 ng/mL
  Stability: RE: -9.59%
[2]; [12]
  Stability: Measured: 438.01 ± 11.23 ng/mL
  Stability: RE: 9.50%
[2]; [13]
  Stability: Measured: 1768.72 ± 60.05 ng/mL
  Stability: RE: 10.54%
[3]
  determination in rat plasma at the planned successive PK time points: could be determined
  detection in rat plasma: could be detected
[3]; [14]
  AUC(0-inf): 340 ± 348 ng·h/mL
  AUC(0-t): 254 ± 236 ng·h/mL
  MRT inf: 12.8 ± 8.78 h
  MRT last: 8.88 ± 3.79 h
  Tmax: 9 ± 4.24 h
[3]; [15]
  Cmax: 24.5 ± 4.04 ng/mL
[3]; [16]
  half-life: 5.63 ± 5.88 h
[3]; [17]
  AUC(0-inf): 378 ± 56.4 ng·h/mL
  AUC(0-t): 281 ± 28.1 ng·h/mL
  MRT inf: 17.3 ± 2.01 h
  MRT last: 10.7 ± 2.31 h
  Tmax: 2.25 ± 3.25 h
[3]; [18]
  Cmax: > 20 ng/mL
[3]; [19]
  Cmax: 37.2 ± 26.3 ng/mL
[3]; [20]
  half-life: > 2.6 h
[3]; [21]
  half-life: 8.53 ± 4.42 h
[3]; [22]
  Cltot: 624.2 ± 638.8 mL/min/kg
[3]; [23]
  Cltot: 350.3 ± 310.5 mL/min/kg
[4]; [24]
  Histopathology of heart tissue (H&E): remarkably severe histological damage with extensive myocardial lysis and architecture wrecking; also recorded: extremely severe histological damage with extensive myocardial lysis and architecture wrecking
[4]
  ECG (lead II) findings on the fifth day of the trial: ST segment elevated

## Cc1coc2c1C(=O)C(=O)c1c-2ccc2c(C)cccc12 [TS I, tanshinone I]
[1]
  solubility in water (in words): insoluble
Caco-2 cell monolayers
  Papp(apical→basolateral): 0.95^d ×10^-6 cm/s
  Papp(basolateral→apical): 11.27^d ×10^-6 cm/s
  apparent permeability in Caco-2 cell monolayers: ≥ 10^-6 cm/s
[2]; [5]
  Stability: Measured: 2.02 ± 0.32 ng/mL
  Stability: RE: 0.78%
[2]; [6]
  Stability: Measured: 470.56 ± 54.19 ng/mL
  Stability: RE: 17.64%
[2]; [7]
  Stability: Measured: 1562.58 ± 145.90 ng/mL
  Stability: RE: -2.34%
[2]; [8]
  Stability: Measured: 2.22 ± 0.30 ng/mL
  Stability: RE: 10.90%
[2]; [9]
  Stability: Measured: 469.39 ± 24.45 ng/mL
  Stability: RE: 17.35%
[2]; [10]
  Stability: Measured: 1771.82 ± 333.46 ng/mL
  Stability: RE: 10.74%
[2]; [11]
  Stability: Measured: 2.09 ± 0.20 ng/mL
  Stability: RE: 4.39%
[2]; [12]
  Stability: Measured: 459.00 ± 25.68 ng/mL
  Stability: RE: 14.75%
[2]; [13]
  Stability: Measured: 1482.38 ± 283.06 ng/mL
  Stability: RE: -7.32%
[3]
  determination in rat plasma at the planned successive PK time points: could be determined
  detection in rat plasma: could be detected
[3]; [14]
  AUC(0-inf): 125 ± 115 ng·h/mL
  AUC(0-t): 63 ± 49.5 ng·h/mL
  MRT inf: 27.3 ± 10.6 h
  MRT last: 9.93 ± 0.87 h
  Tmax: 1.25 ± 1.06 h
[3]; [15]
  Cmax: 6.1 ± 3.08 ng/mL
[3]; [16]
  half-life: 16.4 ± 8.87 h
[3]; [17]
  AUC(0-inf): 45.1 ± 20.6 ng·h/mL
  AUC(0-t): 40.1 ± 17.3 ng·h/mL
  MRT inf: 7.72 ± 2.17 h
  MRT last: 4.27 ± 1.62 h
  Tmax: 1.25 ± 0.66 h
[3]; [18]
  Cmax: < 10 ng/mL
[3]; [19]
  Cmax: 8.59 ± 3.18 ng/mL
[3]; [20]
  half-life: > 2.6 h
[3]; [21]
  half-life: 11.7 ± 4.78 h
[3]; [22]
  Cltot: 45.3 ± 41.8 mL/min/kg
[3]; [23]
  Cltot: 163 ± 59.8 mL/min/kg
[4]; [24]
  Histopathology of heart tissue (H&E): myocardial lysis, architecture disorder, and loss of striations in heart tissue; also recorded: myocardial lysis, and architecture disorder, and loss of striations in heart tissue
[4]
  ECG (lead II) findings on the fifth day of the trial: T waves reversed or decreased

## Cc1coc2c1C(=O)C(=O)c1c-2ccc2c1CCCC2(C)C [TS IIA, tanshinone (TS) IIA]
[1]
  solubility in water (in words): insoluble
Caco-2 cell monolayers
  Papp(apical→basolateral): 0.98^d ×10^-6 cm/s
  Papp(basolateral→apical): 11.81^d ×10^-6 cm/s
  apparent permeability in Caco-2 cell monolayers: ≥ 10^-6 cm/s
[2]; [5]
  Stability: Measured: 2.25 ± 0.34 ng/mL
  Stability: RE: 12.73%
[2]; [6]
  Stability: Measured: 464.77 ± 53.87 ng/mL
  Stability: RE: 16.19%
[2]; [7]
  Stability: Measured: 1714.76 ± 174.65 ng/mL
  Stability: RE: 7.17%
[2]; [8]
  Stability: Measured: 2.14 ± 0.11 ng/mL
  Stability: RE: 6.84%
[2]; [9]
  Stability: Measured: 462.76 ± 13.70 ng/mL
  Stability: RE: 15.69%
[2]; [10]
  Stability: Measured: 1933.47 ± 224.22 ng/mL
  Stability: RE: 20.84%
[2]; [11]
  Stability: Measured: 2.10 ± 0.23 ng/mL
  Stability: RE: 4.94%
[2]; [12]
  Stability: Measured: 468.67 ± 61.03 ng/mL
  Stability: RE: 19.13%
[2]; [13]
  Stability: Measured: 1830.46 ± 289.25 ng/mL
  Stability: RE: 14.40%
[3]
  determination in rat plasma at the planned successive PK time points: could be determined
  detection in rat plasma: could be detected
[3]; [14]
  AUC(0-inf): 71.7 ± 47.4 ng·h/mL
  AUC(0-t): 23.5 ± 6.4 ng·h/mL
  MRT last: 5.4 ± 0.41 h
[3]; [15]
  Cmax: 4.04 ± 0.72 ng/mL
[3]; [17]
  AUC(0-inf): 90.7 ± 52.9 ng·h/mL
  AUC(0-t): 31.1 ± 1.74 ng·h/mL
  MRT last: 5.23 ± 0.04 h
  Tmax: 0.33 ± 0.14 h
[3]; [18]
  Cmax: < 10 ng/mL
[3]; [19]
  Cmax: 9.21 ± 0.78 ng/mL
[3]; [20]
  half-life: > 2.6 h
[3]; [21]
  half-life: 18.3 ± 13 h
[3]; [22]
  Cltot: 382.2 ± 252.5 mL/min/kg
  MRT0-∞: 27.09 ± 16.67 h
  Tmax: 0.25 ± 0.00 h
  t1/2 β: 18.14 ± 12.52 h
[3]; [23]
  Cltot: 585.2 ± 304.2 mL/min/kg
  MRT0-∞: 26.52 ± 19.83 h
[4]; 40 mg/kg p.o. for 7 days, compared with model group, P < 0.05
  ST segment elevations on the seventh day of the trial: significantly decreased
[4]; [25]
  Histopathology of heart tissue (H&E): edema, inflammatory infiltration, and loss of striations in heart tissue
  anti-MI effect (overall conclusion): mild therapeutic effect
[4]
  ECG (lead II) findings on the fifth day of the trial: ST segment elevated
